The text below walks through data of ChEMBL document CHEMBL2074269, “The interaction of n-tetraalkylammonium compounds with a human organic cation transporter, hOCT1” (J Pharmacol Exp Ther, 1999).

This test has as its target T1, Solute carrier family 22 member 1 (Homo sapiens, UniProt O15245).
T1 sequence (O15245 whole entry): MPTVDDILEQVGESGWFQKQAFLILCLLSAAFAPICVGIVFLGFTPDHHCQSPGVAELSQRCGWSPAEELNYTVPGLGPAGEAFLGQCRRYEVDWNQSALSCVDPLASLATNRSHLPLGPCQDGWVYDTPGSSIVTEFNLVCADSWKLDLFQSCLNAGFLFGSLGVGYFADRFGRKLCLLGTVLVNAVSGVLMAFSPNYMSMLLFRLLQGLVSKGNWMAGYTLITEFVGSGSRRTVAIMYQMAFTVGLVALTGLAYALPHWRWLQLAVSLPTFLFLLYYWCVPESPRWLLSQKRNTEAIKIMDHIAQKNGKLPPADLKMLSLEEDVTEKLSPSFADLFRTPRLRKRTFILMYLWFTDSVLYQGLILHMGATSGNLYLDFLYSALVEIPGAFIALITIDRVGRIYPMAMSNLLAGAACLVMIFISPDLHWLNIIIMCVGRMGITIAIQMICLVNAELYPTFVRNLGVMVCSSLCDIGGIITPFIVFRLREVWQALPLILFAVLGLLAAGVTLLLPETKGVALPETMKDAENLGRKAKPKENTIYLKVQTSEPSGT
The format is functional, cell-based, HeLa.
Molecule `CCCC[N+](CCCC)(CCCC)CCCC` [TETRABUTHYLAMMONIUM] returned a 50% inhibitory concentration (IC50) of 52 µM.
On to `CCCCCC[N+](CCCCCC)(CCCCCC)CCCCCC` [TETRAHEXYLAMMONIUM], for which the half-maximal inhibitory concentration (IC50) amounted to 3 µM.
In turn, `CCC[N+](CCC)(CCC)CCC` [TETRAPROPYLAMMONIUM] came in with an IC50 of 90 µM.

In general, IC50 refers to the concentration that inhibits the measured activity by half. The low end stands for inhibition by little substance, the high end for a need for much substance.
